Results: patent US20100266623A1, “SYNTHETIC, SELF ADJUVANTING VACCINES” (priority 2008, published 2010)
Where a name gives a salt, the structure may show the parent alone. Where no end group is shown, it is not given here.

Legend:
[1] = system: anti-amphetamine antibodies; experiment: Competitive ELISA for specificity of anti-amphetamine antibodies; format: binding; details: 2° sera of mice immunised with lipidated amphetamine-TH(MV); coat 5 μg per ml
anti-DNP antibodies = experiment: Inhibition ELISA for specificity of anti-DNP antibodies on DNP-BSA coated plates; format: binding, BALB/c mice; details: for inhibition of antibody binding to DNP-BSA coated plates: inhibitor dilutions from 25 nmol/well; for inhibition of antibody binding to DNP-BSA coated plates by irrelevant inhibitors: sera not specified
Protocol: Competitive ELISA assays involved an extra step whereby ½ log dilutions of inhibitors in BSA5PBST beginning at 25 nmol/well were added to a constant limiting concentration of antibody in BSA5PBST and incubated for 2 hours on separate polyvinyl plates during the blocking step of a regular ELISA. 50 μl/well of the inhibitor and sera mixtures were then transferred to coated, blocked and washed plates and incubated overnight. Plates were then conjugated with HRP-RαM, developed, and read as per ELISA. The percentage of inhibition was determined by the following formula: […]
Inhibition ELISAs were utilised to determine whether antibody-titres detected in previous direct-binding ELISAs consisted mainly of anti-DNP antibodies. All immunogens (peptide- and protein-based) incorporated the 2,4-DNP isomer.
Sera were incubated with different amounts of various inhibitors (FIG. 14) before addition to DNP-BSA coated plates.

[2] = 2° sera of BALB/c mice immunised with DNP-BSA in CFA
[3] = 2° sera of BALB/c mice immunised with lipidated DNP-TH(MV)

C[C@H](N)Cc1ccccc1 [Amphetamine-sulfate, D-amphetamine sulfate]
inhibition of antibody binding to amphetamine-TH(ova) coated plates [1]: low level of inhibition

O=[N+]([O-])c1ccc(O)c([N+](=O)[O-])c1 [2,4-DNP, 2,4-dinitrophenol]
inhibition of antibody binding to DNP-BSA coated plates (anti-DNP antibodies; [2]): No inhibition
inhibition of antibody binding to DNP-BSA coated plates (anti-DNP antibodies; [3]): 35%

COC(=O)[C@H]1[C@@H](OC(=O)c2ccccc2)C[C@@H]2CC[C@H]1N2C [cocaine hydrochloride]
inhibition of antibody binding to amphetamine-TH(ova) coated plates [1]: No inhibition

amphetamine-TH(Flu): succinyl amphetamine-Lys-TH(Flu) peptide, no lipid; coating antigen and inhibitor (KALNNRFQIKGVELKS; not fully specified)
inhibition of antibody binding to amphetamine-TH(ova) coated plates [1]: lower level of inhibition

O=C(O)CCCCCNc1ccc([N+](=O)[O-])cc1[N+](=O)[O-] [2,4-DNP-ahx, 2,4-dinitrophenol-ε-amino-n-caproic acid]
inhibition of antibody binding to DNP-BSA coated plates (anti-DNP antibodies; [2]): approximately 55%
inhibition of antibody binding to DNP-BSA coated plates (anti-DNP antibodies; [3]): approximately 80%

N[C@@H](Cc1ccc(O)cc1)C(=O)O [tyrosine]
inhibition of antibody binding to DNP-BSA coated plates by irrelevant inhibitors (anti-DNP antibodies): no inhibition

CN[C@@H](C)Cc1ccccc1 [Methamphetamine hydrochloride]
inhibition of antibody binding to amphetamine-TH(ova) coated plates [1]: No inhibition

Oc1ccccc1 [phenol]
inhibition of antibody binding to DNP-BSA coated plates by irrelevant inhibitors (anti-DNP antibodies): no inhibition
